Laboratory results: publication PMC261875, “Biochemical Characterization of DNA Damage Checkpoint Complexes: Clamp Loader and Clamp Complexes with Specificity for 5′ Recessed DNA” (PLoS Biology, 2003)

What was measured:
[1] = test system: T1, RSR (Rad17–Rfc2–Rfc3–Rfc4–Rfc5) complex; test: bead pull-down of clamp-clamp loader-DNA ternary complex, Western blot; format: binding; conditions: 1 mM ATPγS, 7 mM MgCl2, pH 7.5, 30 °C; RHR clamp, human RPA, 5' recessed primer-template DNA; nonhydrolyzable ATP analog
T1 construct: untagged

[2] = test system: T2, RFC (replication factor C); test: as above; format: binding; conditions: 1 mM ATPγS, 7 mM MgCl2, pH 7.5, 30 °C; PCNA clamp, human RPA, 3' recessed primer-template DNA; nonhydrolyzable ATP analog
T2 construct: gene RFC1
T2 sequence (P35251 whole entry): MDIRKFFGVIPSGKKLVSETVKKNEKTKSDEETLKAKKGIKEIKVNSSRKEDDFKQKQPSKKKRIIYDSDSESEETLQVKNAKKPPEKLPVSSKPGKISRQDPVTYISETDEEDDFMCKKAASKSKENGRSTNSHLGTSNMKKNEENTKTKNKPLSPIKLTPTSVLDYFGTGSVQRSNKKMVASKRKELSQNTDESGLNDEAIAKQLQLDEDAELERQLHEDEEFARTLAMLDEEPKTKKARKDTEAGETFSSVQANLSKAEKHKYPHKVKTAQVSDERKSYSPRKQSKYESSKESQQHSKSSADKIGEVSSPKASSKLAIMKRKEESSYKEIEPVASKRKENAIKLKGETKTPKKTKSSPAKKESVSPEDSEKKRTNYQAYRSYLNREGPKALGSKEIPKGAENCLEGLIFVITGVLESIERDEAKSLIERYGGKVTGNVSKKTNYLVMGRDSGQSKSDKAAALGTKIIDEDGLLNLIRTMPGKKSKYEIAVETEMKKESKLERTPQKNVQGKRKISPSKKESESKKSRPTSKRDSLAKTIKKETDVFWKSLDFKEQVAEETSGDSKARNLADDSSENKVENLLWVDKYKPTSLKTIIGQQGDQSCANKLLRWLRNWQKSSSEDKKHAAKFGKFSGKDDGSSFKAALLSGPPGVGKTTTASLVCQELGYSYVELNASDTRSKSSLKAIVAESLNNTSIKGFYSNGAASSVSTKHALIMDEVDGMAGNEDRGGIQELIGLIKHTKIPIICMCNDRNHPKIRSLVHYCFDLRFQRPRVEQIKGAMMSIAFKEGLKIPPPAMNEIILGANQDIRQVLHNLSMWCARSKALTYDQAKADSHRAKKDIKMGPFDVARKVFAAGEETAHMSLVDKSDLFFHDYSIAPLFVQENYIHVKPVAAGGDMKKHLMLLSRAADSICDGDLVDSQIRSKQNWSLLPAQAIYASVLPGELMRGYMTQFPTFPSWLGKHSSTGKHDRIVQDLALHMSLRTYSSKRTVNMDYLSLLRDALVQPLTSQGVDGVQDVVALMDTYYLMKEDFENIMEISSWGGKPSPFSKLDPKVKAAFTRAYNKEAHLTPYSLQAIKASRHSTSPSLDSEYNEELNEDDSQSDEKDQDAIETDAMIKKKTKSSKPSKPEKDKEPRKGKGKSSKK
T2 sequence (P35250 whole entry, further chain): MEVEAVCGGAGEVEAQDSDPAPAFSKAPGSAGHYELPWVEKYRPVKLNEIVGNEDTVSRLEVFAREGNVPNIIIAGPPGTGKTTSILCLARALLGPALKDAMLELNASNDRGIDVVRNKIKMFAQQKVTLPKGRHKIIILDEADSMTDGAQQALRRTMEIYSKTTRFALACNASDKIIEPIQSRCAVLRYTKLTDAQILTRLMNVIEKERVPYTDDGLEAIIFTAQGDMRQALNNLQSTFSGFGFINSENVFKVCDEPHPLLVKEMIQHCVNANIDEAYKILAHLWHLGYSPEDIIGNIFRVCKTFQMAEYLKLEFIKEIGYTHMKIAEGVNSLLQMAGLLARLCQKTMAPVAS
T2 sequence (P40938 whole entry, further chain): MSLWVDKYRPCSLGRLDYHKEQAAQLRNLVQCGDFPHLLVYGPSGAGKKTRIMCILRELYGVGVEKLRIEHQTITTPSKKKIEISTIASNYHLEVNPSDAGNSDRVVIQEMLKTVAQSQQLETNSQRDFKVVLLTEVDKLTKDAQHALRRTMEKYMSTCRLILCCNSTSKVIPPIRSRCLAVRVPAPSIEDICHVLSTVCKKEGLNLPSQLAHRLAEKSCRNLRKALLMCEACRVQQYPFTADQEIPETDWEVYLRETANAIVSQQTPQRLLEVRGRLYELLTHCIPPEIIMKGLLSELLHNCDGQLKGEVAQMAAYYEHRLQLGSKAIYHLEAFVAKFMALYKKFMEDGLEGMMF
T2 sequence (P35249 whole entry, further chain): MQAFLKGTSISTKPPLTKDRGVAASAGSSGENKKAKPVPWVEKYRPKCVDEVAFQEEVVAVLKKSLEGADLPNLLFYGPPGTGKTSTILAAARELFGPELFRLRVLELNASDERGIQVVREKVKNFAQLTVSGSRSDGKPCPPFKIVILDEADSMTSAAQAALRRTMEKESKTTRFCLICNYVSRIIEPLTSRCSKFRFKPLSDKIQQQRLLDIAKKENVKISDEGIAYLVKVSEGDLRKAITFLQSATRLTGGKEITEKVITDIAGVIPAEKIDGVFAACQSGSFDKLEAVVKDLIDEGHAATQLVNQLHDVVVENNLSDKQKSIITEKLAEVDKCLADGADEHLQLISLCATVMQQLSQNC
T2 sequence (P40937 whole entry, further chain): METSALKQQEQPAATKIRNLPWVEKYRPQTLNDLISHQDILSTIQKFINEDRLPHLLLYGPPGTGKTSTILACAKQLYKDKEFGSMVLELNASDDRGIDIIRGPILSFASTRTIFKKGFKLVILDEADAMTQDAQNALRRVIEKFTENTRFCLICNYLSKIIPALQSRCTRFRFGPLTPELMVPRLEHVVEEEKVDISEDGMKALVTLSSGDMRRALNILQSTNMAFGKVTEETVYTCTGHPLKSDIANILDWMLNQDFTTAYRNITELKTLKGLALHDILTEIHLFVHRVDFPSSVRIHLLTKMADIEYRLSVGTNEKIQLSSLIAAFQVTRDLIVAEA

T1 sequence (O75943 whole entry): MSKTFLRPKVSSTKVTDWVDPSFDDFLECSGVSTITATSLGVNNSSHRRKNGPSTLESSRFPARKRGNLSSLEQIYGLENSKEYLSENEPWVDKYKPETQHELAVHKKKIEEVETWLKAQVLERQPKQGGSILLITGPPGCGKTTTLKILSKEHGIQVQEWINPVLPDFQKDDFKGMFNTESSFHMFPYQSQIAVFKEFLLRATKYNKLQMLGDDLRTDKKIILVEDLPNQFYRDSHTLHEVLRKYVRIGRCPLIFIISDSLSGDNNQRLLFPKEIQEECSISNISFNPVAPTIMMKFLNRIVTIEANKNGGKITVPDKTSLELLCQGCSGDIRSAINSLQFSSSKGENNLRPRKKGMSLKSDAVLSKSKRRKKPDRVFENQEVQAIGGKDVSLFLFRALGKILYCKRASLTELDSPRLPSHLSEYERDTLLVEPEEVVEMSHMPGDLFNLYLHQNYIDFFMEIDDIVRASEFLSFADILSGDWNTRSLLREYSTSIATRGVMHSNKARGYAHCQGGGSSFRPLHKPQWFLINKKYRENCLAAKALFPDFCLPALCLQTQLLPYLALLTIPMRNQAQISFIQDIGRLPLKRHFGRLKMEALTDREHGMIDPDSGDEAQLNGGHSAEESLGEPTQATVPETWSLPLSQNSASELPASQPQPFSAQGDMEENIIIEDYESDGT
T1 sequence (P35250 whole entry, further chain): as the sequence (P35250 whole entry, further chain) above
T1 sequence (P40938 whole entry, further chain): as the sequence (P40938 whole entry, further chain) above
T1 sequence (P35249 whole entry, further chain): as the sequence (P35249 whole entry, further chain) above
T1 sequence (P40937 whole entry, further chain): as the sequence (P40937 whole entry, further chain) above

Nc1ncnc2c1ncn2[C@@H]1O[C@H](COP(=O)(O)OP(=O)(O)OP(O)(O)=S)[C@@H](O)[C@H]1O [ATPγS, adenosine 5′-O-3′-thiotriphosphate]
bead pull-down of clamp-clamp loader-DNA ternary complex, Western blot [1]: in the presence of ATPγS ternary complex formation, but not clamp loading
bead pull-down of clamp-clamp loader-DNA ternary complex, Western blot [2]: ternary complex formation on both substrates in the presence of ATPγS was observed
